{"source": "patent EP4497439A1", "about": "“COMPOUNDS FOR THE TREATMENT OR PREVENTION OF GOUT” (Universitat de les Illes Balears, priority 2023, dated 2025)", "key": {"[1]": {"experiment": "in vitro model of monosodium urate monohydrate (MSU) crystallization: naked eye observation and uric acid remaining in solution (phosphotungstic acid method)", "format": "physicochemical", "design": "C100 (minimum concentration that totally prevented the formation of sodium urate crystals): unit not given here", "conditions": "for concentration capable of preventing the formation of MSU crystals (increased uric acid in solution) / C100 (minimum concentration that totally prevented the formation of sodium urate crystals): 5 days (120 h); for effect on the crystallization of MSU (formation of MSU crystals) / solubility of sodium urate in the tested fluid: compound 0.3 mM; for effect on the crystallization of MSU (formation of MSU crystals): uric acid 375 mg/L (2.23 mM), 6 days (144 h) plate images, 4 days uric acid in solution; for effect on the crystallization of MSU (formation of MSU crystals) / solubility of sodium urate in the tested fluid / C100 (minimum concentration that totally prevented the formation of sodium urate crystals): phosphate buffer 12 mM"}, "[2]": {"conditions": "doses of up to 400 mg three times a day; treatment of myopia; cited from earlier work"}, "[3]": {"conditions": "cited from earlier work"}, "[4]": {"conditions": "uric acid 375 mg/L, [Na+] 400 mM, pH 7.4"}}, "note": "Like-named read-outs stand apart in the source and are kept apart here."}
{"compound": "Cn1c(=O)[nH]c(=O)c2[nH]cnc21", "note": "[3-methylxanthine]", "values": [{"measurement": "concentration capable of preventing the formation of MSU crystals (increased uric acid in solution)", "setting": "[1]; [4]", "value": "≤ 50", "unit": "µM"}, {"measurement": "effect on the crystallization of MSU (formation of MSU crystals)", "setting": "[1]; [Na+] 400 mM, pH 7.4", "value": "strong inhibition"}, {"measurement": "solubility of sodium urate in the tested fluid", "setting": "[1]; [4]", "value": "significantly increased"}, {"measurement": "effects relative to those of 7-methylxanthine", "setting": "[1]; same concentration", "value": "approximately half"}]}
{"compound": "Cn1c(=O)[nH]c2[nH]c(=O)[nH]c(=O)c21", "note": "[7-methyluric acid]", "values": [{"measurement": "effect on the crystallization of MSU (formation of MSU crystals)", "setting": "[1]; [Na+] 400 mM, pH 7.4", "value": "strong inhibition"}, {"measurement": "solubility of sodium urate in the tested fluid", "setting": "[1]; [4]", "value": "significantly increased"}, {"measurement": "effects relative to those of 7-methylxanthine", "setting": "[1]; same concentration", "value": "like those of 7-methylxanthine"}]}
{"compound": "Cn1cnc2[nH]c(=O)[nH]c(=O)c21", "note": "[7-methylxanthine]", "values": [{"measurement": "formation of MSU crystals after 3 days", "setting": "[1]; 50 µM, 100 µM and 150 µM, triplicates, uric acid 375 mg/L, [Na+] 400 mM, pH 7.4, 72 h", "value": "completely prevented"}, {"measurement": "concentration capable of preventing the formation of MSU crystals (increased uric acid in solution)", "setting": "[1]; [4]", "value": "≤ 50", "unit": "µM"}, {"measurement": "C100 (minimum concentration that totally prevented the formation of sodium urate crystals)", "setting": "[1]; [UA]0 275 mg/L, [Na+] 400 mM, pH 7.4", "value": 10}, {"measurement": "C100 (minimum concentration that totally prevented the formation of sodium urate crystals)", "setting": "[1]; [UA]0 300 mg/L, [Na+] 400 mM, pH 7.4", "value": 20}, {"measurement": "C100 (minimum concentration that totally prevented the formation of sodium urate crystals)", "setting": "[1]; [UA]0 340 mg/L, [Na+] 400 mM, pH 7.4", "value": 40}, {"measurement": "C100 (minimum concentration that totally prevented the formation of sodium urate crystals)", "setting": "[1]; [UA]0 375 mg/L, [Na+] 400 mM, pH 7.4", "value": 60}, {"measurement": "C100 (minimum concentration that totally prevented the formation of sodium urate crystals)", "setting": "[1]; [UA]0 400 mg/L, [Na+] 400 mM, pH 7.4", "value": 80}, {"measurement": "C100 (minimum concentration that totally prevented the formation of sodium urate crystals)", "setting": "[1]; [UA]0 425 mg/L, [Na+] 400 mM, pH 7.4", "value": 100}, {"measurement": "C100 (minimum concentration that totally prevented the formation of sodium urate crystals)", "setting": "[1]; [UA]0 450 mg/L, [Na+] 400 mM, pH 7.4", "value": 125}, {"measurement": "effect on the crystallization of MSU (formation of MSU crystals)", "setting": "[1]; [Na+] 400 mM, pH 7.4", "value": "strong inhibition"}, {"measurement": "solubility of sodium urate in the tested fluid", "setting": "[1]; [4]", "value": "significantly increased"}, {"measurement": "crystallization inhibition compared with the other methylxanthine", "setting": "[1]; same concentration, 5 days, uric acid 375 mg/L", "value": "significantly higher crystallization inhibition compared to 3-methylxanthine"}, {"measurement": "concentration that prevents the formation of sodium urate crystals for times longer than 48h", "setting": "[1]; times longer than 48h", "value": "~6", "unit": "mg/L"}, {"measurement": "toxicity", "setting": "[2]", "value": "do not present any toxicity"}]}
{"compound": "Cn1c(=O)c2c(ncn2C)n(C)c1=O", "note": "[caffeine, 1,3,7-trimethylxanthine, reference compound]", "values": [{"measurement": "effect on the crystallization of MSU (formation of MSU crystals)", "setting": "[1]; [Na+] 400 mM, pH 7.4", "value": "does not affect"}, {"measurement": "share metabolized to 7-methylxanthine", "setting": "[3]; administered orally", "value": 8, "unit": "%"}]}
{"compound": "Cn1cnc2c1c(=O)[nH]c(=O)n2C", "note": "[theobromine, 3,7-dimethylxanthine, reference compound]", "values": [{"measurement": "effect on the crystallization of MSU (formation of MSU crystals)", "setting": "[1]; [Na+] 400 mM, pH 7.4", "value": "did not show any effect"}, {"measurement": "share metabolized to 7-methylxanthine", "setting": "[3]; in vivo, po", "value": 30, "unit": "%"}]}
